# Measured values: US20240226343A1, “NEUROPEPTIDE Y1 RECEPTOR (NPY1R) TARGETED THERAPEUTICS AND USES THEREOF” (RADIONETICS ONCOLOGY, INC., priority 2022, published 2024)
# Like-named read-outs stand apart in the source and are kept apart here.
# Biological target: T1, hNPY1R (Homo sapiens, UniProt P25929)
# T1 construct: SK-N-MC cells endogenously expressing the NPY1R receptor; endogenous in cells; host or cells: SK-N-MC cells (crude membrane fractions)
# T1 sequence (P25929 1-384): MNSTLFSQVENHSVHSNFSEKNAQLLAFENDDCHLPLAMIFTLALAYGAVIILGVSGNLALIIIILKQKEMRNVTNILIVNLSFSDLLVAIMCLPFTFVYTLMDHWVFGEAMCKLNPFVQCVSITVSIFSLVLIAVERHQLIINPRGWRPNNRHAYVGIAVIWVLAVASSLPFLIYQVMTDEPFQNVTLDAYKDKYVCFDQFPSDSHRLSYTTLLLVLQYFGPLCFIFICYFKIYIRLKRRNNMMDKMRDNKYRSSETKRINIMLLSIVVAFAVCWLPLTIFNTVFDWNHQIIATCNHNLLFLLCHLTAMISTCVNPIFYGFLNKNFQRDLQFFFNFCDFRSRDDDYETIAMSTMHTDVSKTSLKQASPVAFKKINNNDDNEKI
# Test: NPY1R binding assay: SK-N-MC membranes, [125I]-Peptide YY (human) competition
# Conditions: SK-N-MC membranes
# Procedure: Crude membrane fractions are prepared from SK-N-MC cells endogenously expressing the NPY1R receptor. The cells are grown to 85-100% confluence on standard tissue culture dishes in Eagle's Minimum Essential Medium supplemented with 10% dialyzed FBS. To prepare membranes, cells are scraped and collected in 1× Dulbecco's phosphate buffered saline and then pelleted at 1000 RPM's. The cell pellet is reconstituted in membrane preparation buffer (20 mM HEPES, 6 mM MgCl2 and 1 mM EGTA, protease inhibitor tablets, pH 7.4) and placed in a cell disruption vessel at 1000 PSI for 30 minutes on ice. The pressurized contents are then released and spun down at 1000 RPMs and the supernatant is collected and further centrifuged at 15,000 RPMs to pellet the membranes. The membrane pellet is resuspended in membrane preparation buffer, snap frozen and stored at −80° C. for later use.
# […] Assay contents are then filtered through unifilter GF/C microplates and washed with 9×400 μl of cold wash buffer (25 mM HEPES, 5 mM MgCl2, 1 mM CaCl2), 500 mM NaCl, 0.1% Tween-20, pH 7.4). Assay plates are read using a Top Count NXT and Ki values for compounds are determined using a GraphPad Prism 6 non-linear regression analysis.
# [1] = data obtained after 120 minutes at rt, [125I]-Peptide YY, read-out: hNPY.R binding Ki* ††
# [2] = data obtained after 60 minutes at 37° C., [125I]-Peptide YY 0.05 nM, read-out: hNPY1R binding Ki* †
Ki [1] [nM],Structure (SMILES),Ki [2] [nM]
< 10,"CCC(=O)NCCNC(=O)/N=C(/N)NCCC[C@@H](NC(=O)C(c1ccccc1)c1cccc(OCCCCNC(=O)[C@@H](CCCNC(=N)N)NC(=O)CCNC(=O)CN2CCN(CC(=O)O)CCN(CC(=O)O)CCN(CC(=O)O)CC2)c1)C(=O)NCc1ccc(O)cc1 (single isomer, unassigned) [Compound 141A]",–
< 10,"CCC(=O)NCCNC(=O)/N=C(/N)NCCC[C@@H](NC(=O)C(c1ccccc1)c1ccc(NCCCNC(=O)[C@H](N)CCCNC(=O)CN2CCC(NC(=O)CN3CCN(CC(=O)O)CCN(CC(=O)O)CCN(CC(=O)O)CC3)CC2)cc1)C(=O)NCc1ccc(O)cc1 (single isomer, unassigned) [Compound 146B]",–
< 10,"CCC(=O)NCCNC(=O)/N=C(/N)NCCC[C@@H](NC(=O)C(c1ccccc1)c1cccc(NCCCNC(=O)CCOCCNC(=O)CN2CCN(CC(=O)O)CCN(CC(=O)O)CCN(CC(=O)O)CC2)c1)C(=O)NCc1ccc(O)cc1 (single isomer, unassigned) [Compound 121A]",–
10 to 100,"N=C(N)NCCC[C@@H](NC(=O)[C@@H](c1ccccc1)c1cccc(OCCCCNC(=O)[C@H](N)CCCCNC(=O)CN2CCN(CC(=O)O)CCN(CC(=O)O)CCN(CC(=O)O)CC2)c1)C(=O)NCc1ccc(O)cc1 [Compound 138, 2,2′,2″-(10-(2-(((R)-5-amino-6-((4-(3-((S)-2-(((R)-5-guanidino-1-((4-hydroxybenzyl)amino)-1-oxopentan-2-yl)amino)-2-oxo-1-phenylethyl)phenoxy)butyl)amino)-6-oxohexyl)amino)-2-oxoethyl)-1,4,7,10-tetraazacyclododecane-1,4,7-triyl)triacetic acid]",–
< 10,"CCC(=O)NCCNC(=O)/N=C(/N)NCCC[C@@H](NC(=O)C(c1ccccc1)c1ccc(NCCCNC(=O)c2ccc(C(=O)NCCCCNC(=O)CN3CCN(CC(=O)O)CCN(CC(=O)O)CCN(CC(=O)O)CC3)cc2)cc1)C(=O)NCc1ccc(O)cc1 (stereo partly drawn) [Compound 157, 2,2′,2″-(10-(2-((4-(4-((3-((4-((4R,Z)-9-amino-4-((4-hydroxybenzyl)carbamoyl)-2,11,16-trioxo-1-phenyl-3,8,10,12,15-pentaazaoctadec-9-en-1-yl)phenyl)amino)propyl)carbamoyl)benzamido)butyl)amino)-2-oxoethyl)-1,4,7,10-tetraazacyclododecane-1,4,7-triyl)triacetic acid]",–
< 10,"CCC(=O)NCCNC(=O)/N=C(/N)NCCC[C@@H](NC(=O)C(c1ccccc1)c1cccc(OCCCCNC(=O)[C@@H](CO)NC(=O)CCNC(=O)CN2CCN(CC(=O)O)CCN(CC(=O)O)CCN(CC(=O)O)CC2)c1)C(=O)NCc1c(F)cc(O)cc1F (single isomer, unassigned) [Compound 165B]",–
< 10,"CCC(=O)NCCNC(=O)/N=C(/N)NCCC[C@@H](NC(=O)C(c1ccccc1)c1cccc(NCCCNC(=O)CCOCCNC(=O)CN2CCN(CC(=O)O)CCN(CC(=O)O)CCN(CC(=O)O)CC2)c1)C(=O)NCc1ccc(O)cc1 (single isomer, unassigned) [Compound 121B]",–

# Second part, the compound before the results:
Structure (SMILES),Ki [1] [nM],Ki [2] [nM]
"CCC(=O)NCCNC(=O)/N=C(/N)NCCC[C@@H](NC(=O)C(c1ccccc1)c1cccc(OCCCCNC(=O)CCOCCNC(=O)CN2CCN(CC(=O)O)CCN(CC(=O)O)CCN(CC(=O)O)CC2)c1)C(=O)NCc1ccc(O)cc1 (single isomer, unassigned) [Compound 108B]",–,< 10
"CCC(=O)NCCNC(=O)/N=C(/N)NCCC[C@@H](NC(=O)C(c1ccccc1)c1cccc(OCCCCNC(=O)CCOCCNC(=O)CN2CCN(CC(=O)O)CCN(CC(=O)O)CCN(CC(=O)O)CC2)c1)C(=O)NCc1ccc(O)cc1 (single isomer, unassigned) [Compound 108A]",–,< 10
"CCC(=O)NCCNC(=O)/N=C(/N)NCCC[C@@H](NC(=O)C(c1ccccc1)c1cccc(OCCCCNC(=O)[C@@H](CCCN)NC(=O)CCNC(=O)CN2CCN(CC(=O)O)CCN(CC(=O)O)CCN(CC(=O)O)CC2)c1)C(=O)NCc1ccc(O)cc1 (single isomer, unassigned) [Compound 147B]",< 10,–
"CCC(=O)NCCNC(=O)/N=C(/N)NCCC[C@@H](NC(=O)C(c1ccccc1)c1ccc(NCCCNC(=O)CCOCCOCCNC(=O)CN2CCN(CC(=O)O)CCN(CC(=O)O)CCN(CC(=O)O)CC2)cc1)C(=O)NCc1ccc(O)cc1 (single isomer, unassigned) [Compound 103B]",–,< 10
"CCC(=O)NCCNC(=O)/N=C(/N)NCCC[C@@H](NC(=O)C(c1ccccc1)c1ccc(NCC(=O)N(C)CCCN(C)CCCN(C)C(=O)CN2CCN(CC(=O)O)CCN(CC(=O)O)CCN(CC(=O)O)CC2)cc1)C(=O)NCc1ccc(O)cc1 (single isomer, unassigned) [Compound 139A]",< 10,–
"CCC(=O)NCCNC(=O)/N=C(/N)NCCC[C@@H](NC(=O)C(c1ccccc1)c1cccc(OCCCCNC(=O)CCC(=O)N(CC(=O)O)C2CCN(C(=O)CN3CCN(CC(=O)O)CCN(CC(=O)O)CCN(CC(=O)O)CC3)CC2)c1)C(=O)NCc1ccc(O)cc1 (single isomer, unassigned) [Compound 117B]",< 10,< 10
"CCC(=O)NCCNC(=O)/N=C(/N)NCCC[C@@H](NC(=O)C(c1ccccc1)c1cccc(OCCCCNC(=O)CCCCCNC(=O)CN2CCN(CC(=O)O)CCN(CC(=O)O)CCN(CC(=O)O)CC2)c1)C(=O)NCc1c(F)cc(O)cc1F (single isomer, unassigned) [Compound 161B]",< 10,–
"CCC(=O)NCCNC(=O)/N=C(/N)NCCC[C@@H](NC(=O)C(c1ccccc1)c1cccc(OCCCCNC(=O)CCCCCNC(=O)CN2CCN(CC(=O)O)CCN(CC(=O)O)CCN(CC(=O)O)CC2)c1)C(=O)NCc1ccc(O)cc1 (single isomer, unassigned) [Compound 140A]",< 10,–
"CCC(=O)NCCNC(=O)/N=C(/N)NCCC[C@@H](NC(=O)C(c1ccccc1)c1cccc(OCCCCNC(=O)CN2CCN(C(=O)CN3CCN(CC(=O)O)CCN(CC(=O)O)CCN(CC(=O)O)CC3)CC2)c1)C(=O)NCc1ccc(O)cc1 (single isomer, unassigned) [Compound 118B]",–,< 10
"CCC(=O)NCCNC(=O)/N=C(/N)NCCC[C@@H](NC(=O)C(c1ccccc1)c1cccc(OCCCCNc2c(NCCONC(=O)CN3CCN(CC(=O)O)CCN(CC(=O)O)CCN(CC(=O)O)CC3)c(=O)c2=O)c1)C(=O)NCc1c(F)cc(O)cc1F (single isomer, unassigned) [Compound 169]",< 10,–
"CCC(=O)NCCNC(=O)/N=C(/N)NCCC[C@@H](NC(=O)C(c1ccccc1)c1cccc(OCCOCCOCCOCCOCCNC(=O)CN2CCN(CC(=O)O)CCN(CC(=O)O)CCN(CC(=O)O)CC2)c1)C(=O)NCc1ccc(CNC(N)=O)cc1 (single isomer, unassigned) [Compound 114A]",–,10 to 100
"CCC(=O)NCCNC(=O)/N=C(/N)NCCC[C@@H](NC(=O)C(c1ccccc1)c1cccc(OCCCCNC(=O)CONC(=O)CCNC(=O)CN2CCN(CC(=O)O)CCN(CC(=O)O)CCN(CC(=O)O)CC2)c1)C(=O)NCc1c(F)cc(O)cc1F (single isomer, unassigned) [Compound 167]",< 10,–
"CCC(=O)NCCNC(=O)/N=C(/N)NCCC[C@@H](NC(=O)C(c1ccccc1)c1cccc(OCCOCCOCCOCCOCCNC(=O)CN2CCN(CC(=O)O)CCN(CC(=O)O)CCN(CC(=O)O)CC2)c1)C(=O)NCc1ccc(O)cc1 (single isomer, unassigned) [Compound 101B]",–,< 10
"CCC(=O)NCCNC(=O)/N=C(/N)NCCC[C@@H](NC(=O)C(c1ccccc1)c1cccc(OCCOCCOCCOCCOCCNC(=O)CN2CCN(CC(=O)O)CCN(CC(=O)O)CCN(CC(=O)O)CC2)c1)C(=O)NCc1ccc(CNC(N)=O)cc1 (single isomer, unassigned) [Compound 114B]",–,10 to 100
"CCC(=O)NCCNC(=O)/N=C(/N)NCCC[C@@H](NC(=O)C(c1ccccc1)c1ccc(NCC(=O)N(C)CCCN(C)CCCN(C)C(=O)CN2CCN(CC(=O)O)CCN(CC(=O)O)CCN(CC(=O)O)CC2)cc1)C(=O)NCc1ccc(O)cc1 (single isomer, unassigned) [Compound 139B]",< 10,–
"CCC(=O)NCCNC(=O)/N=C(/N)NCCC[C@@H](NC(=O)C(c1ccccc1)c1ccc(NCCNC(=O)[C@H](N)CCCNC(=O)CN2CCN(CC(=O)O)CCN(CC(=O)O)CCN(CC(=O)O)CC2)cc1)C(=O)NCc1ccc(O)cc1 (single isomer, unassigned) [Compound 144B]",< 10,–
"CCC(=O)NCCNC(=O)/N=C(/N)NCCC[C@@H](NC(=O)C(c1ccccc1)c1cccc(OCCCCNC(=O)[C@H](N)CCCCNC(=O)c2ccc(CNC(=O)CN3CCN(CC(=O)O)CCN(CC(=O)O)CCN(CC(=O)O)CC3)cc2)c1)C(=O)NCc1ccc(O)cc1 (single isomer, unassigned) [Compound 142B]",< 10,–
